Experimental data from ChEMBL document CHEMBL4665751, “Discovery of Clinical Candidate (5-(3-(4-Chlorophenoxy)prop-1-yn-1-yl)-3-hydroxypicolinoyl)glycine, an Orally Bioavailable Prolyl Hydroxylase Inhibitor for the Treatment of Anemia” (J Med Chem, 2020).
Active and inactive are the calls of the source. The calls are words filed in the database; no cut-off is given here.

Legend:
[1] = Acute toxicity in male Sprague-Dawley rat assessed as increase in weight of spleen to body weight at 15 to 200 mg/kg, po administered every alternate days for 2 weeks measured on day 14; type: organism-based; conditions: in vivo, 336 h, dose 15-200 mg/kg, time 14 day
Homo sapiens [2] = organism: Homo sapiens; assay: Selectivity index, ratio of IC50 for KDM3A (unknown origin) in presence of peptide substrate incubated for 30 mins by alpha screen assay to IC50 for PHD2 (unknown origin) by O-phenyl enediamine(OPD) based fluorescence assay
[3] = Genotoxicity in Salmonella typhimurium TA98 at 62.5 to 1000 ug incubated for 48 to 50 hrs in absence of S9 fraction by Ames test; type: toxicity, Salmonella enterica subsp. enterica serovar Typhimurium; conditions: in vivo; dose 62.5-1000 µg, time 48-50 hrs
[4] = Acute toxicity in Sprague-Dawley rat assessed as change in ratio of adrenal gland to body weight at 15 to 200 mg/kg, po administered every alternate days for 2 weeks measured on day 14; type: organism-based; conditions: in vivo, 336 h, dose 15-200 mg/kg, time 14 day
[5] = Hepatotoxicity in male Sprague-Dawley rat assessed as change in globulin level at 15 to 200 mg/kg, po administered every alternate days for 2 weeks measured on day 14; type: toxicity, organism-based; conditions: in vivo, 336 h, dose 15-200 mg/kg, time 14 day
[6] = Half-life in Sprague-Dawley rat at 2 mg/kg, ig by LC-MS/MS analysis; type: ADME, organism-based; conditions: in vivo, po
Homo sapiens [7] = organism: Homo sapiens; assay: Selectivity index, ratio of IC50 for PHD3 (unknown origin) to IC50 for PHD2 (unknown origin) by O-phenyl enediamine(OPD) based fluorescence assay
[8] = Acute toxicity in Sprague-Dawley rat assessed as change in body weight at 15 to 200 mg/kg, po administered every alternate days for 14 days; type: organism-based; conditions: in vivo, 336 h, dose 15-200 mg/kg, time 14 day
[9] = Half-life in monkey liver microsome at 1 uM preincubated for 5 mins followed by NADPH addition measured up to 120 mins by LC-MS/MS analysis; type: ADME, Macaca mulatta; conditions: rhesus monkey, liver microsomes, time <=125 min
MCF7 = assay: Cytotoxicity against human MCF7 cells assessed as reduction in cell viability at 10 to 100 uM incubated for 72 hrs by MTT assay; type: cell-based; conditions: mcf7, 72 h, dose 10-100 µM
[10] = Half-life in Sprague-Dawley rat at 1 mg/kg, iv by LC-MS/MS analysis; type: ADME, organism-based; conditions: in vivo
L02 = assay: Cytotoxicity against human L02 cells assessed as reduction in cell viability at 10 to 100 uM incubated for 72 hrs by MTT assay; type: cell-based; conditions: l02, 72 h, dose 10-100 µM
HUVEC = assay: Cytotoxicity against human HUVEC cells assessed as reduction in cell viability at 10 to 100 uM incubated for 72 hrs by MTT assay; type: cell-based; conditions: dose 10-100 µM
Egl nine homolog 1 [11] = target: T1, Egl nine homolog 1 (Homo sapiens, UniProt Q9GZT9); assay: Inhibition of PHD2 in human Hep3B cells assessed as upregulation of EPO mRNA expression measured after 10 hrs by Trizol reagent based qRT-PCR analysis; type: cell-based; conditions: dose microM 5-50, time 10.0 hrs
Target sequence in this assay (Q9GZT9 2-426 limits assumed): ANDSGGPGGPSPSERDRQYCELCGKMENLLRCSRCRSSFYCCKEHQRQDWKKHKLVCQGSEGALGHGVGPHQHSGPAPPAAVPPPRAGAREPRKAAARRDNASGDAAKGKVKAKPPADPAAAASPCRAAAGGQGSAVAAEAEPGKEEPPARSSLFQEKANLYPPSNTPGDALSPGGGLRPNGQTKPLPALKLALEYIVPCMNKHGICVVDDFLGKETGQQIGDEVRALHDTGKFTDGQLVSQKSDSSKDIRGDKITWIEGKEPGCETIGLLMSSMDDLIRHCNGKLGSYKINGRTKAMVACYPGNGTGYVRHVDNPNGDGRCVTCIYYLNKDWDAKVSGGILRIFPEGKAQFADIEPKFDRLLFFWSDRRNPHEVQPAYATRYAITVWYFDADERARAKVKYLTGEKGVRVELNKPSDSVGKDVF

[12] = Acute toxicity in Sprague-Dawley rat assessed as effect on food intake at 15 to 200 mg/kg, po administered every alternate day for 14 day; type: organism-based; conditions: in vivo, 336 h, dose 15-200 mg/kg
Mus musculus = assay: Antianemic activity in cisplatin-induced C57BL/6 mouse anemia model assessed as increase in haemoglobin level administered orally every other day for 1 month; type: functional, organism-based; conditions: dose mg/kg 10-25, time 1.0 months
[13] = Apparent volume of distribution in Sprague-Dawley rat at 1 mg/kg, iv by LC-MS/MS analysis; type: ADME, organism-based; conditions: in vivo, read-out: Vz
[14] = Oral bioavailability in Sprague-Dawley rat at 2 mg/kg by LC-MS/MS analysis; type: ADME, organism-based; conditions: in vivo
[15] = AUC (0 to t) in Sprague-Dawley rat at 1 mg/kg, iv by LC-MS/MS analysis; type: ADME, organism-based; design: dose 1 mg/kg; conditions: in vivo
Hep 3B2 = assay: Cytotoxicity against human Hep3B cells assessed as reduction in cell viability at 10 to 100 uM incubated for 72 hrs by MTT assay; type: cell-based; conditions: hep 3b2, 72 h, dose 10-100 µM
[16] = Clearance in Sprague-Dawley rat at 2 mg/kg, ig by LC-MS/MS analysis; type: ADME, organism-based; conditions: in vivo, po
Egl nine homolog 1 [17] = target: T1, Egl nine homolog 1; assay: Inhibition of PHD2 in human MCF7 cells assessed as upregulation of HIFalpha expression at 25 uM incubated for 24 hrs by firefly/renilla luciferase reporter gene assay relative to control; type: cell-based
Target sequence in this assay (Q9GZT9 2-426 limits assumed): as above

[18] = Tmax in Sprague-Dawley rat at 2 mg/kg, ig by LC-MS/MS analysis; type: ADME, organism-based; conditions: in vivo, po
Egl nine homolog 1 [19] = target: T1, Egl nine homolog 1; assay: Inhibition of PHD2 in human MCF7 cells assessed as upregulation of HIFalpha expression at 50 uM incubated for 24 hrs by firefly/renilla luciferase reporter gene assay relative to control; type: cell-based
Target sequence in this assay (Q9GZT9 2-426 limits assumed): as above

Egl nine homolog 1 [20] = target: T1, Egl nine homolog 1; assay: Inhibition of PHD2 in human Hep3B cells assessed as upregulation of EPO mRNA expression at 50 uM measured after 10 hrs by Trizol reagent based qRT-PCR analysis relative to control; type: cell-based
Target sequence in this assay (Q9GZT9 2-426 limits assumed): as above

Cytochrome P450 3A4 = Cytochrome P450 3A4 (Homo sapiens, UniProt P08684); assay: Inhibition of CYP3A4 (unknown origin) using testosterone as substrate preincubated for 5 mins followed by addition of NADPH measured after 20 mins by LC-MS/MS analysis; type: ADME
Sequence of Cytochrome P450 3A4 (P08684 whole entry, the tested form may be a part): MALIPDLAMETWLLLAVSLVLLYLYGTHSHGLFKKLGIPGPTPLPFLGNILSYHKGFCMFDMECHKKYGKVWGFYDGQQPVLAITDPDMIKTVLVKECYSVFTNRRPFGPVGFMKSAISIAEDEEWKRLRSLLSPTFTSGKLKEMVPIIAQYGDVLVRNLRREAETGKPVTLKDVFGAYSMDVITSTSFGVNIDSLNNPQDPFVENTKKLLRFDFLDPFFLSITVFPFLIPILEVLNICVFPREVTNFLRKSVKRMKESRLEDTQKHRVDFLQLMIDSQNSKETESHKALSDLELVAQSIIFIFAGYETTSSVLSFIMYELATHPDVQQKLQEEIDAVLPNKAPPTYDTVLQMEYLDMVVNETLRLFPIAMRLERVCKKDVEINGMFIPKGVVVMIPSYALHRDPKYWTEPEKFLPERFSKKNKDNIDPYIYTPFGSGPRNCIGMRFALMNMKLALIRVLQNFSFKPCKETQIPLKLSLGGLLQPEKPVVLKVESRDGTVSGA

Egl nine homolog 1 [21] = target: T1, Egl nine homolog 1; assay: Inhibition of FITC-HIF1alpha (556 to 574 residues) binding to PHD2 (181 to 426 residues) (unknown origin) by fluorescence polarization assay
Target sequence in this assay (Q9GZT9 whole entry): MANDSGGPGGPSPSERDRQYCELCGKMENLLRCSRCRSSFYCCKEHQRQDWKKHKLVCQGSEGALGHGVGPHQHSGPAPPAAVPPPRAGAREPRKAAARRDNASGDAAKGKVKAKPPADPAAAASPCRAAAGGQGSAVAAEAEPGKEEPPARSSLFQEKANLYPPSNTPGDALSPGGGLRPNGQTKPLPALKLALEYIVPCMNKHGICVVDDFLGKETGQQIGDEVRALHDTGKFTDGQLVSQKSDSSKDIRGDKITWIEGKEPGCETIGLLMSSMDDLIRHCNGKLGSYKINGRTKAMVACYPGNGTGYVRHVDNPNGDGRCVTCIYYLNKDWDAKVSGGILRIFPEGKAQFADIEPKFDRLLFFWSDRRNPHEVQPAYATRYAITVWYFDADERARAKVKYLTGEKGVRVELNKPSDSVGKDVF

[22] = Acute toxicity in Sprague-Dawley rat assessed as change in ratio of kidney to body weight at 15 to 200 mg/kg, po administered every alternate days for 2 weeks measured on day 14; type: organism-based; conditions: in vivo, 336 h, dose 15-200 mg/kg, time 14 day
[23] = AUC (0 to infinity) in Sprague-Dawley rat at 2 mg/kg, ig by LC-MS/MS analysis; type: ADME, organism-based; design: time infinity, route […], dose 2 mg/kg; conditions: in vivo, po
[24] = AUC (0 to t) in Sprague-Dawley rat at 2 mg/kg, ig by LC-MS/MS analysis; type: ADME, organism-based; design: dose 2 mg/kg; conditions: in vivo, po
[25] = Acute toxicity in Sprague-Dawley rat assessed as change in ratio of heart to body weight at 15 to 200 mg/kg, po administered every alternate days for 2 weeks measured on day 14; type: organism-based; conditions: in vivo, 336 h, dose 15-200 mg/kg, time 14 day
[26] = Nephrotoxicity in male Sprague-Dawley rat assessed as effect on total protein level in blood at 15 to 200 mg/kg, iv or po administered every alternate days for 2 weeks measured on day 14; type: toxicity, organism-based; conditions: in vivo, 336 h, dose 15-200 mg/kg, time 14 day
[27] = Hepatotoxicity in male Sprague-Dawley rat assessed as change in aspartate aminotransferase level in blood at 200 mg/kg, po administered every alternate days for 2 weeks measured on day 14; type: toxicity, organism-based; conditions: in vivo, 336 h, time 14 day
[28] = Clearance in Beagle dog at 0.5 mg/kg, iv by LC-MS/MS analysis; type: ADME, organism-based, Canis lupus familiaris; conditions: in vivo
[29] = MRT (0 to infinity) in Beagle dog at 0.5 mg/kg, iv by LC-MS/MS analysis; type: ADME, organism-based, Canis lupus familiaris; conditions: in vivo
[30] = MRT (0 to infinity) in Sprague-Dawley rat at 1 mg/kg, iv by LC-MS/MS analysis; type: ADME, organism-based; conditions: in vivo
[31] = Half-life in rat liver microsome at 1 uM preincubated for 5 mins followed by NADPH addition measured up to 120 mins by LC-MS/MS analysis; type: ADME; conditions: liver microsomes, time <=125 min

O=C(O)CNC(=O)c1ncc(C#CCOc2ccc(Cl)cc2)cc1O [DDO-3055]
Activity [1]: Toxic | Ratio IC50 (Homo sapiens [2]): > 1560 | Activity [3]: Non-Toxic | Activity [4]: Non-Toxic | Activity [5]: Non-Toxic | half-life [6]: 6.44 h | Ratio IC50 (Homo sapiens [7]): 2.6 | Activity [8]: Non-Toxic | half-life at 1 µM [9]: > 1.65 h | Activity (MCF7): Non-Toxic | half-life [10]: 8.43 h | Activity (L02): Non-Toxic | Activity (HUVEC): Non-Toxic | inhibition (Egl nine homolog 1 [11]): Dose-dependent effect | Activity [12]: Non-Toxic | Activity (Mus musculus): Active | Vd [13]: 2.52 L/kg | bioavailability [14]: 55.7% | AUC(0-t) [15]: 4710 ng·h/mL | Activity (Hep 3B2): Non-Toxic | CL/F [16]: 7.3 mL/min/kg | fold change (FC) (Egl nine homolog 1 [17]): 4 | Tmax [18]: 0.63 h | fold change (FC) (Egl nine homolog 1 [19]): 7 | fold change (FC) (Egl nine homolog 1 [20]): 7 | IC50 (Cytochrome P450 3A4): > 30000 nM | IC50 (Egl nine homolog 1 [21]): 64.2 nM | Activity [22]: Non-Toxic | AUC(0-inf) [23]: 5420 ng·h/mL | AUC(0-t) [24]: 4800 ng·h/mL | Activity [25]: Non-Toxic | Activity [26]: Non-Toxic | Activity [27]: Toxic | clearance [28]: 13.2 mL/min/kg | MRT inf [29]: 2.27 h | MRT inf [30]: 3.44 h | half-life at 1 µM [31]: > 1.12 h
